A short description of series [1]: Pharmacokinetics of salt forms, single IV dose. The note with it: male, CD-1, mouse. In kind it is in vivo, CD-1 mice. The procedure:
(§1) Pharmacokinetics of Hec1 Inhibitor Salts: Pharmacokinetic comparison of different salt forms (HCl, tosylate, mesylate salt) was studied for the compounds as shown in Table 3 below:
(§2) Formulations for both PO (oral) and IV (intravenous) doses were prepared in saline with 2% Tween 80 and 10% DMSO. Concentrations were adjusted based on the molecular weights of the freebase and salts.
IV studies: A single dose of 1 mg/kg of each of the three test articles was IV administered to 21 healthy male CD-1 mice (weight ranged from 18-27 g). The dosing volume was 5 mL/kg. Food and water were available to all animals during the experiment period.
(§3) Three mice were bled (ca. 1 mL) at each timepoint (0.5, 1, 1.5, 2, 4, 6, and 24 hours post-dose for PO study and 0.083, 0.5, 1, 2, 4, 6, and 24 hours post-dose for IV study) by cardiac puncture and blood was collected into K3EDTA blood collection tubes. Blood samples were centrifuged immediately at 4° C. at 3000 rpm for 10 min. Plasma samples were transferred and stored at −20° C. prior to analysis.
(§4) The plasma concentrations of 110095 (compound 27 of Table 1, the free base of all three test articles) were determined by LC MS/MS in the positive MRM mode; all doses were normalized to the freebase (110095) concentration. The mean plasma concentration from each time point (n=3) were used to calculate the PK parameters using a non-compartmental model. Pharmacokinetic parameters (Cmax, Tmax, t½, AUC, etc.) were calculated using WinNonlin Software (version 5.3, Pharsight, Sunnyvale Calif. 94086 USA), the results and absolute bioavailability results are presented in Table 6. Table 4 lists mean concentrations (ng/mL) of 110095 in mouse plasma following a single oral dose of 10 mg/kg of 110095-HCl-1007, 110095-03-03 or 110095-02-02 to CD-1 mice, and Table 5 lists mean concentrations (ng/mL) of 110095 in mouse plasma following a single IV dose of 1 mg/kg of 110095-HCl-1007, 110095-03-03 or 110095-02-02 to CD-1 mice. Table 6 lists PK parameters and absolute bioavailability result of 110095-HCl-1007, 110095-03-03 or 110095-02-02 in CD-1 mice.

Series [2] can be described thus: Pharmacokinetics of salt forms, single oral dose. The note with it: male, CD-1, mouse, plasma. In kind it is in vivo, CD-1 mice. The method, then: as §1, §2
PO studies: A single dose of 10 mg/kg of each of the three test compounds was orally administered to 21 healthy male CD-1 mice (weight ranged from 18-27 g). The dosing volume was […]. Animals were fasted approximately 16 hours prior to dosing until 4 hours post dosing. Water was available to all animals during the experiment period.
as §3, §4

The test system of series [3] is caspase-3, PARP, Mcl-1 and XIAP. As to the kind of experiment: Immunoblot of apoptotic pathway proteins. It counts as cell-based. The following applies: 1 μM, 24 or 48 hours. The procedure: Immunoblot Analysis: For immunoblotting experiments, cells were plated in a 6-well culture plate and cultured overnight. Cells were incubated with the test compounds for the indicated time and whole cell lysate was harvested by adding 1×SDS-PAGE Sample Buffer (62.5 mM Tris-HCl (pH 6.8 at 25° C.), 2% w/v SDS, 10% glycerol, 50 mM DTT, and 0.01% w/v bromophenol blue or phenol red). Proteins were separated by SDS-PAGE electrophoresis and transferred to PVDF membrane. Protein expression was immunoblotted using various primary antibodies and detected using Immobilon Western Chemiluminescent HRP Substrate (Millipore, Billerica Mass. 01821 USA). Antibodies used include anti-Cleaved Caspase3, (Rabbit, Cell Signaling Technology, Danvers Mass. 01923 USA); anti-PARP (Rabbit, Cell Signaling Technology, Danvers Mass. 01923 USA); anti-MCL-1 (mouse, BD Biosciences, San Jose Calif. 95131 USA); anti-XIAP (rabbit, Cell Signaling Technology, Danvers Mass. 01923 USA); anti-Bcl-2 (mouse, Santa Cruz Biotechnology, Santa Cruz Calif. 95060); anti-Cyclin BI (mouse, BD Biosciences, San Jose Calif. 95131 USA); anti-Cyclin D1 (mouse, Santa Cruz Biotechnology, Santa Cruz Calif. 95060); Anti-Nek2 (mouse, BD Biosciences, San Jose Calif. 95131 USA); Anti-HEC1, (rabbit, GeneTex, Inc., Irvine Calif. 92606 USA); and anti-actin (mouse, Millipore, Billerica Mass. 01821 USA).
100 nM Taxol was used as a positive control drug for apoptosis.

For series [4], the system named is MDA-MB-231. Put plainly: Antiproliferation assay (MTS), MDA-MB-231 cells. The following applies: Homo sapiens, MDA-MB-231, 96 h, read-out: Antiproliferative IC50 MDA-MB-231, Table 1. In kind it is cell-based. The procedure: (§5) Cells were grown at 37° C. in a humidified atmosphere consisting of 5% CO2 and 95% air.
(§6) Antiproliferation Assays: Cells were plated in a 96-well culture plate with 2000-8000 cells per well. The compounds were prepared in DMSO and used to treat cells in a final concentration of less than 1% DMSO. Compound treatment started after overnight incubation of cells (T0). […] Compound was added to the plate in triplicate wells, and the plates were then incubated for 96 hours. DMSO (compound diluent) was also included and added to the plate in control wells. Cell viability was then determined by MTS assay using the CellTiter 96® aqueous non-radioactive cell proliferation assay system (Promega, Madison, Wis. 53711 USA). A plate reader (Vmax, Molecular Devices, Sunnyvale Calif. 94089 USA) was used to determine the optical densities, and the results were used to deduce concentration-response curves. […] The results were analyzed using linear regression software (GraphPad Prism 5; GraphPad Software Inc. La Jolla Calif. 92037 USA).

Series [5] relates to Hela. As to the kind of experiment: Antiproliferation assay (MTS), HeLa cells. It counts as cell-based. The note with it: Homo sapiens, 96 h, Table 1, read-out: Antiproliferative IC50 Hela. The procedure:
as §5, §6

Series [6] relates to K562. As to the kind of experiment: Antiproliferation assay (MTS), K562 cells. It counts as cell-based. The note with it: Homo sapiens, K562, 96 h, Table 1, read-out: Antiproliferative IC50 K562. The procedure: as §5, §6
Series [7] has as its system MDA-MB-468. As to the kind of experiment: Antiproliferation assay (MTS), MDA-MB-468 cells. In kind it is cell-based. The following applies: Homo sapiens, MDA-MB-468, 96 h, Table 1, read-out: Antiproliferative IC50 MDA-MB-468. The procedure: as §5, §6
Series [8] has as its target T1, hERG potassium channels (Homo sapiens, UniProt Q12809).
T1 construct: purchased PerkinElmer
Put plainly: [3H]Astemizole competitive binding assay, hERG. The following applies: [3H]-astemizole displacement, hERG membrane protein. The procedure: Here, [3H] Astemizole competitive binding assays were performed to determine the ability of compounds to displace the known radioligand [3H]-astemizole from the hERG potassium channels, following standard protocol with minor modifications. In brief, assays were performed in 200 μl of binding buffer (50 mM HEPES, pH 7.4, 60 mM KCl, and 0.1% BSA) containing 1.5 nM of [3H]astemizole, 3 μg/well of hERG membrane protein (PerkinElmer), and TAI-1 (in 1% DMSO final concentration) at 27° C. for 60 min. Nonspecific binding (NSB) was determined in the presence of 10 μM astemizole. […] Binding was terminated by rapid filtration onto polyethyleneimine-presoaked, buffer-washed UniFilter-96, GF/C (Perkin Elmer) using a vacuum manifold (Porvair Sciences). Captured radiolabel signal was detected using TopCount NXT (Perkin Elmer). […] All results are derived from two independent experiments.

Series [9] has as its system Caco-2 cell monolayers. As to the kind of experiment: Caco-2 cell permeability. The note with it: 10 μM, 2 hour, both directions. It counts as in vitro ADME. The procedure:
Here, Caco-2 cell line (cat. HTB-37TM) was purchased from the ATCC. Cells were cultivated in T-75 flasks in a cell culture incubator set at 37° C., 5% CO2, 95% relative humidity. Cells were allowed to grow to reach 80-90% confluence before seeding. […] The cells were grown in culture medium consisting of Dulbecco's modified Eagle's medium supplemented with 10% fetal bovine serum, 100 U/mL penicillin and 100 μg/mL streptomycin. The culture medium was replaced every 2 days and the cells were maintained at 37° C., 95% relative humidity and 5% CO2.
For a quality integrity control of the monolayers of seeded cells, the Lucifer yellow (LY) transport experiment was performed to evaluate monolayer integrity. As for a quality control of each filter, the transepithelial electrical resistance (TEER) was measured before the start of and at the end of transport experiments. Physiologically and morphologically well developed Caco-2 cell monolayers with TEER values greater than 400 Ωcm^2 were used for the studies.
The solution volumes in apical and basolateral chambers were set to 0.4 and 0.6 ml respectively. Samples were taken from both the apical and basolateral compartment at the end of the 2 hour incubation at 37° C. […] The excitation and emission wavelengths were 490 nm and 530 nm, respectively.

This note sets out measurements from patent publication US8999983B2, “Modulators of Hec1 activity and methods therefor” (Taivex Therapeutics Corporation, priority 2011, dated 2015).

The structures appear in SMILES notation.

T1 sequence (Q12809 whole entry): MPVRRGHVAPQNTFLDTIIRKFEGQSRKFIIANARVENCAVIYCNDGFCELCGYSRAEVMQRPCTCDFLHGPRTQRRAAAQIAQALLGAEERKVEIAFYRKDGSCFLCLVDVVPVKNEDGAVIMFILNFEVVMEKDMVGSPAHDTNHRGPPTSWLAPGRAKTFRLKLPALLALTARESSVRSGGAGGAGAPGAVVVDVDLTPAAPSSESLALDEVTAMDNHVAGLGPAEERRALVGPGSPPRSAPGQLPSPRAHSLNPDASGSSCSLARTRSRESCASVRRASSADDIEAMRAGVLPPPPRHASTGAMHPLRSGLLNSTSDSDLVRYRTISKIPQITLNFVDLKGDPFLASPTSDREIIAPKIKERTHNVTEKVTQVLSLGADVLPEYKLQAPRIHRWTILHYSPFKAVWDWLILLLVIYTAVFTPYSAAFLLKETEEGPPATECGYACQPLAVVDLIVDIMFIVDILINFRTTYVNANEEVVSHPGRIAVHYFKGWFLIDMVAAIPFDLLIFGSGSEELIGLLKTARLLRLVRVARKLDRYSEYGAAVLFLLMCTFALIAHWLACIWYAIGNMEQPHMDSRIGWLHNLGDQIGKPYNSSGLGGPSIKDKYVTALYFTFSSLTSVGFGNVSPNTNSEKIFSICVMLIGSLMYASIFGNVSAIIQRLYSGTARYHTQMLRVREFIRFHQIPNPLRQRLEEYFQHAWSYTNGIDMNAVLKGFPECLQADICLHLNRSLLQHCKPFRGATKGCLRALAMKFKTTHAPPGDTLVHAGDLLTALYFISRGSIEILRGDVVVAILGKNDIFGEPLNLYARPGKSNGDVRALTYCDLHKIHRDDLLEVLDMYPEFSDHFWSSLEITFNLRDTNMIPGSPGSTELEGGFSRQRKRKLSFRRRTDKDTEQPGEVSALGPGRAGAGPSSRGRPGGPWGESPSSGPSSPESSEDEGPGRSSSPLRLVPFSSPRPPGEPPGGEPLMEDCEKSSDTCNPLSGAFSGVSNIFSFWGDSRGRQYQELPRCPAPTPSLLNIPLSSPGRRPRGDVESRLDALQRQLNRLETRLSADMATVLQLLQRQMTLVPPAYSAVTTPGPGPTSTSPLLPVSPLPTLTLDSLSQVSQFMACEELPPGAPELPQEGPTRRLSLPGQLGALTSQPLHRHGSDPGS

On to `COCCOc1cnc(Sc2cc(C)c(-c3csc(NC(=O)c4ccncc4)n3)c(C)c2)cn1.Cl` [110095-HCl-1007], for which the total exposure AUC(0-inf) was found to be 3000 ng·h/mL in series [1] (in vivo, iv, 1 mg/kg) and 25100 ng·h/mL in series [2] (PO 10.0 mg/kg). Besides, the exposure AUC(0-t) in series [1] (in vivo, iv, 1 mg/kg) came to 2980 ng·h/mL; in series [2] (PO 10.0 mg/kg) it was 25100 ng·h/mL. Also, the MRT amounted to 3.3 h in series [1] (in vivo, iv, 1 mg/kg) and 4.11 h in series [2] (PO 10.0 mg/kg). The half-life was 3.61 h in [1] (in vivo, iv, 1 mg/kg) and 2.81 h in [2] (PO 10.0 mg/kg). The concentration at […] is 870 ng/mL in series [1] (plasma, IV 1 mg/kg, 0.083 h, read-out: mean concentration of 110095 in mouse plasma) and 3660 ng/mL in series [2] (PO 10 mg/kg, 1.5 h, read-out: mean concentration of 110095 in mouse plasma). The concentration at 0.5 h in series [1] (plasma, IV 1 mg/kg, 0.5 h, read-out: mean concentration of 110095 in mouse plasma) is 684 ng/mL; in series [2] (PO 10 mg/kg, 0.5 h, read-out: mean concentration of 110095 in mouse plasma), 1800 ng/mL. For the same compound, the concentration at 1 h in [1] (plasma, IV 1 mg/kg, 1 h, read-out: mean concentration of 110095 in mouse plasma) came to 549 ng/mL; in series [2] (PO 10 mg/kg, 1 h, read-out: mean concentration of 110095 in mouse plasma) it was 4060 ng/mL. Besides, the concentration at 2 h in series [1] (plasma, IV 1 mg/kg, 2 h, read-out: mean concentration of 110095 in mouse plasma) amounted to 422 ng/mL; in [2] (PO 10 mg/kg, 2 h, read-out: mean concentration of 110095 in mouse plasma), 3560 ng/mL. The concentration at 4 h in [1] (plasma, IV 1 mg/kg, 4 h, read-out: mean concentration of 110095 in mouse plasma) was determined as 202 ng/mL; in series [2] (PO 10 mg/kg, 4 h, read-out: mean concentration of 110095 in mouse plasma), 2170 ng/mL. The concentration at 6 h in series [1] (plasma, IV 1 mg/kg, 6 h, read-out: mean concentration of 110095 in mouse plasma) worked out at 93.2 ng/mL; in [2] (PO 10 mg/kg, 6 h, read-out: mean concentration of 110095 in mouse plasma), 1140 ng/mL. The concentration at 24 h in series [1] (plasma, IV 1 mg/kg, 24 h, read-out: mean concentration of 110095 in mouse plasma) was determined as 3.68 ng/mL; in series [2] (PO 10 mg/kg, 24 h, read-out: mean concentration of 110095 in mouse plasma) it was 14.8 ng/mL. In series [2] (PO 10.0 mg/kg), the Cmax is 4060 ng/mL. The Tmax in series [2] (PO 10.0 mg/kg) was determined as 1 h. Further, the bioavailability in series [2] (PO 10.0 mg/kg vs IV 1.00 mg/kg, read-out: F % (absolute bioavailability)) was determined as 84%.
In the case of `Cc1cc(Sc2cnccn2)cc(C)c1-c1csc(NC(=O)c2ccnc(F)c2)n1` [Compound 19, N-{4-(2,6-Dimethyl-4-(pyrazin-2-ylthio)phenyl)thiazol-2-yl}-2-fluoroisonicotinamide], in [3], the “levels of apoptotic (caspase-3, PARP) and anti-apoptotic (Mcl-1, XIAP) proteins” value is “cleavage of the apoptotic proteins accompanied by down-regulation of the anti-apoptotic proteins”. The IC50 in [4] turned out to be 0.032 µM; in series [5], 0.0356 µM; in [6], 0.0376 µM; in series [7] it was 0.0601 µM.
With `COCCOc1ccc(Oc2cc(C)c(-c3csc(NC(=O)c4ccnc(F)c4)n3)c(C)c2)cc1` [Compound 20, 2-Fluoro-N-(4-{4-(4-(2-methoxyethoxy)phenoxy)-2,6-dimethylphenyl}thiazol-2-yl)isonicotinamide], the “levels of apoptotic (caspase-3, PARP) and anti-apoptotic (Mcl-1, XIAP) proteins” value in [3] is given as “cleavage of the apoptotic proteins accompanied by down-regulation of the anti-apoptotic proteins”. For the same compound, the IC50 worked out at 0.0075 µM in series [4], 0.0109 µM in [5], 0.0141 µM in series [6] and 0.0104 µM in series [7].
With `COCCOc1cnc(Oc2cc(C)c(-c3csc(NC(=O)c4ccncc4)n3)c(C)c2)cn1` [Compound 22, N-(4-{4-(5-(2-Methoxyethoxy)pyrazin-2-yloxy)-2,6-dimethylphenyl}thiazol-2-yl)isonicotinamide], in series [8], the IC50 is > 10 µM. Besides, in series [9], the Caco-2 permeability entry is “moderate Caco-2 permeability”.
In the case of `COc1cnc(Sc2cc(C)c(-c3csc(NC(=O)c4ccncc4)n3)c(C)c2)cn1` [Compound 25, N-{4-(4-(5-Methoxypyrazin-2-ylthio)-2,6-dimethylphenyl)thiazol-2-yl}isonicotinamide], in series [8], the IC50 was > 10 µM.
